Measurements from patent US8802597B2, “Herbicidal pyrimidines” (E I du Pont de Nemours and Company, priority 2003, dated 2014).

What was measured:
Type in all cases: in vivo
[1] = test system: junglerice (Echinochloa colona); test: Test E flooded paddy water application; details: Flood, 21 days, scale 0 to 100 (0 no effect, 100 complete control)
Method in brief: (§1)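 Greenhouse pots of Tama silt loam with weeds and rice at 2.0–2.5-leaf stage, flooded to 3 cm; compounds applied directly into paddy water, depth maintained. Visual rating versus untreated controls after 21 days, 0 (no effect) to 100 (complete control); 29.5/26.7 °C, 16-h photoperiod.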

[2] = test system: transplanted rice seedlings (Oryza sativa cv. ‘Japonica-M202’); test: Test E flooded paddy water application; details: Flood, 21 days, scale 0 to 100 (0 no effect, 100 complete control)
Method in brief: as §1

[3] = test system: barnyardgrass (Echinochloa crus-galli); test: Test E flooded paddy water application; details: Flood, 21 days, scale 0 to 100 (0 no effect, 100 complete control)
Method in brief: as §1

[4] = test system: purple redstem (Ammannia coccinea); test: Test E flooded paddy water application; details: Flood, 21 days, scale 0 to 100 (0 no effect, 100 complete control)
Method in brief: as §1

[5] = test system: early watergrass (Echinochloa oryzoides); test: Test E flooded paddy water application; details: Flood, 21 days, scale 0 to 100 (0 no effect, 100 complete control)
Method in brief: as §1

[6] = test system: smallflower umbrella sedge (Cyperus difformis); test: Test E flooded paddy water application; details: Flood, 21 days, scale 0 to 100 (0 no effect, 100 complete control)
Method in brief: as §1

[7] = test system: ducksalad (Heteranthera limosa); test: Test E flooded paddy water application; details: Flood, 21 days, scale 0 to 100 (0 no effect, 100 complete control)
Method in brief: as §1

[8] = test system: bearded (brdd.) sprangletop (Leptochloa fusca ssp. fascicularis); test: Test E flooded paddy water application; details: Flood, 21 days, scale 0 to 100 (0 no effect, 100 complete control)
Method in brief: as §1

[9] = test system: chickweed (Stellaria media); test: Test C postemergence
Method in brief: (§2)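 Rating scale 0–100: 0 means no effect, 100 complete control; taken visually 12 to 14 days post-treatment versus controls. Pre- and postemergence greenhouse applications, postemergence at 1- to 4-leaf stage, non-phytotoxic solvent with surfactant as carrier.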

[10] = test system: woolly cupgrass (Eriochloa villosa); test: Test C pre/postemergence; details: for Plant response rating, Cupgrass, Woolly: Preemergence
Method in brief: as §2

[11] = test system: morningglory (Ipomoea coccinea); test: Test C pre/postemergence; details: for Plant response rating, Morningglory: Preemergence
Method in brief: as §2

[12] = test system: eastern black nightshade (Solanum ptycanthum); test: Test C pre/postemergence; details: Preemergence, scale 0 to 100, 0 no effect, 100 complete control
Method in brief: as §2

[13] = Postemergence, 125 g ai/ha, scale 0 to 100 (0 no effect, 100 complete control)
[14] = 16 g ai/ha, scale 0 to 100, 0 no effect, 100 complete control
[15] = 31 g ai/ha, scale 0 to 100, 0 no effect, 100 complete control
[16] = 62 g ai/ha, scale 0 to 100, 0 no effect, 100 complete control

Nc1nc(-c2ccc(Cl)cc2)nc(C(=O)[O-])c1Cl.[Na+] [Compound 117]
0: Junglerice plant response rating ([1]; 32 g ai/ha) | Junglerice plant response rating ([1]; 64 g ai/ha) | Junglerice plant response rating ([1]; 125 g ai/ha) | Junglerice plant response rating ([1]; 250 g ai/ha) | Plant response rating, Junglerice ([1]; 16 g ai/ha) | Rice, Transplanted plant response rating ([2]; 32 g ai/ha) | Rice, Transplanted plant response rating ([2]; 64 g ai/ha) | Rice, Transplanted plant response rating ([2]; 125 g ai/ha) | Plant response rating, Rice, Transplanted ([2]; 16 g ai/ha) | Barnyardgrass plant response rating ([3]; 32 g ai/ha) | Barnyardgrass plant response rating ([3]; 64 g ai/ha) | Barnyardgrass plant response rating ([3]; 125 g ai/ha) | Barnyardgrass plant response rating ([3]; 250 g ai/ha) | Plant response rating, Barnyardgrass ([3]; 16 g ai/ha) | Redstem plant response rating ([4]; 32 g ai/ha) | Redstem plant response rating ([4]; 64 g ai/ha) | Redstem plant response rating ([4]; 125 g ai/ha) | Plant response rating, Redstem ([4]; 16 g ai/ha) | Watergrass, Early plant response rating ([5]; 32 g ai/ha) | Watergrass, Early plant response rating ([5]; 64 g ai/ha) | Watergrass, Early plant response rating ([5]; 125 g ai/ha) | Watergrass, Early plant response rating ([5]; 250 g ai/ha) | Plant response rating, Watergrass, Early ([5]; 16 g ai/ha) | Sprangletop, Brdd. plant response rating ([8]; 32 g ai/ha) | Sprangletop, Brdd. plant response rating ([8]; 64 g ai/ha) | Sprangletop, Brdd. plant response rating ([8]; 125 g ai/ha) | Sprangletop, Brdd. plant response rating ([8]; 250 g ai/ha) | Plant response rating, Sprangletop, Brdd. ([8]; 16 g ai/ha) | Plant response rating, Cupgrass, Woolly [10, 14] | Plant response rating, Cupgrass, Woolly [10, 15] | Plant response rating, Morningglory [11, 14] | Plant response rating, Morningglory [11, 15] | Plant response rating, Nightshade ([12]; 16 g ai/ha)
80: Plant response rating (scale of 0 to 100), Cupgrass, Woolly ([10]; Postemergence, 31 g ai/ha) | Plant response rating (scale of 0 to 100), Cupgrass, Woolly ([10]; Postemergence, 62 g ai/ha)
5: Plant response rating, Morningglory [11, 16] | Plant response rating, Nightshade ([12]; 31 g ai/ha)
85: Sedge, Umbrella plant response rating ([6]; 32 g ai/ha) | Cupgrass, Woolly plant response rating [10, 13]
50: Plant response rating, Cupgrass, Woolly ([10]; 125 g ai/ha, scale 0 to 100) | Plant response rating (scale of 0 to 100), Morningglory ([11]; Postemergence, 31 g ai/ha) | Plant response rating (scale of 0 to 100), Morningglory ([11]; Postemergence, 62 g ai/ha) | Morningglory plant response rating [11, 13] | Plant response rating, Morningglory ([11]; 125 g ai/ha, scale 0 to 100)
30: Redstem plant response rating ([4]; 250 g ai/ha) | Plant response rating (scale of 0 to 100), Chickweed ([9]; 16 g ai/ha)
15: Plant response rating, Cupgrass, Woolly [10, 16]
60: Plant response rating, Sedge, Umbrella ([6]; 16 g ai/ha) | Plant response rating (scale of 0 to 100), Cupgrass, Woolly ([10]; Postemergence, 16 g ai/ha)
40: Plant response rating (scale of 0 to 100), Chickweed ([9]; 62 g ai/ha) | Plant response rating, Nightshade ([12]; 62 g ai/ha)
20: Rice, Transplanted plant response rating ([2]; 250 g ai/ha) | Plant response rating (scale of 0 to 100), Morningglory ([11]; Postemergence, 16 g ai/ha)
100: Sedge, Umbrella plant response rating ([6]; 64 g ai/ha) | Sedge, Umbrella plant response rating ([6]; 125 g ai/ha) | Sedge, Umbrella plant response rating ([6]; 250 g ai/ha) | Ducksalad plant response rating ([7]; 32 g ai/ha) | Ducksalad plant response rating ([7]; 64 g ai/ha) | Ducksalad plant response rating ([7]; 125 g ai/ha) | Ducksalad plant response rating ([7]; 250 g ai/ha) | Plant response rating, Ducksalad ([7]; 16 g ai/ha)
